Data on 1 compound can be found in ChEMBL document CHEMBL3886982, “Substituted bicyclic dihydropyrimidinones and their use as inhibitors of neutrophil elastase activity” (2016).

This test deals with T1, Neutrophil elastase (Homo sapiens, UniProt P08246).
T1 sequence (P08246 whole entry): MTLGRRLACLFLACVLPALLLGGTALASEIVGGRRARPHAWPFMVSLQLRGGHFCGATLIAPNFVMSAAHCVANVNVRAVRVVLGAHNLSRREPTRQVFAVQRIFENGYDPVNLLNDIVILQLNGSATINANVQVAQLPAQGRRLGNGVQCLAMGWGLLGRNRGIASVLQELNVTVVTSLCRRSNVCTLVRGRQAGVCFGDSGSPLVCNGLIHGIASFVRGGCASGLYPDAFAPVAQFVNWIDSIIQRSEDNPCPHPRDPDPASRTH
Nature of the test: Human Neutrophil Elastase Assay: The following buffers were used: Compound buffer: 100 mM Tris, 500 mM NaCl, adjusted to pH 7.5; Assay buffer: 100 mM Tris, 500 mM NaCl, adjusted to pH 7.5, containing 0.01% BSA.Assay conditions: Test compounds were prediluted in DMSO and subsequently in compound buffer (5% DMSO final). 5 μL of these compound dilutions were mixed with 10 μl Neutrophil elastase ….

Description: Human Neutrophil Elastase Assay: The following buffers were used: Compound buffer: 100 mM Tris, 500 mM NaCl, adjusted to pH 7.5; Assay buffer: 100 mM Tris, 500 mM NaCl, adjusted to pH 7.5, containing 0.01% BSA.Assay conditions: Test compounds were prediluted in DMSO and subsequently in compound buffer (5% DMSO final). […] After inactivation of the enzyme, fluorescence intensities were measured at 380 nm excitation and 460 nm emission wavelengths.

Compound `CN1C(=O)N(c2cccc(C(F)(F)F)c2)C2=C(C(=O)CC2)C1c1ccc(C#N)cc1-c1ccnn1C` (stereo unspecified) returned an IC50 of 7.3 nM.

Usually IC50 stands for the concentration at which inhibition is half-maximal.
